Like-named read-outs stand apart in the source and are kept apart here.
How the values were obtained:
[1] = test system: NGP; test: IncuCyte live-cell imaging, antiproliferative effect; type: cell-based; details: Homo sapiens, 72 h
Description: Human neuroblastoma cell lines NGP, IMR-32, SJNB-8, SK-N-BE(2)-C, SJNB-1, SK-N-SH and SK-N-AS, as well as benign immortalized cell lines RPE and HEK293T were either bought commercially or obtained through research laboratories. […] Screening for mycoplasma contamination occurred routinely on the cells. Human neuroblastoma cell lines SH-SY5Y_shABCB1 & SH-SY5Y_shNTC were generated by transduction with pLKO.1-ABCB1_TRCN0000059683 shRNA (Sigma MISSION SHCLND) or pLKO.1-puro NT shRNA (Sigma MISSION SHC002) vectors respectively (Supplementary Table S6), packaged using Lenti-X293T (Clontech). Transduced cells were selected with 2 μg/mL puromycin. These cells were cultured in DMEM 4.5 g/L D-Glucose, L-Glutamine and 110 mg/L Sodium Pyruvate (Gibco, #11995065) supplemented with 10% fetal bovine serum, 1× Antibiotic-Antimycotic solution (Sigma-Aldrich, #A5955) and 1× MEM nonessential amino acids (Sigma-Aldrich, #M7145). Incubation of all cells occurred at 37 °C and 5% CO2.
Neuroblastoma cells were seeded in 384-well plates at different densities ranging from 1200 to 5000 cells/well and allowed to adhere overnight. RPE and HEK293T were seeded at 200 and 600 cells/well, respectively. Compound treatment was performed using the D300e Digital Dispenser (Tecan) in duplicate or triplicate and cell confluency was monitored over time using the IncuCyte Live-cell imaging system (Sartorius). […] Mean normalized confluences were calculated from 3 individual experiments.
All dose–response curves were computed on GraphPad Prism using the Variable Slope (four parameters) equation. Absolute half-maximal degradation (DC50), growth inhibitory (GI50) and enzymatic inhibitory (IC50) concentrations, as well as inhibition constants (Ki) were derived from dose–response curves via interpolation. Statistical tests were performed on GraphPad Prism and detailed in the figure legends. Unless otherwise stated, “n” in the figure legends indicates the number of independent experiments conducted at different times.

[2] = Plasma stability assay; type: in vitro ADME, CD-1 mouse; details: for half-life at 1 μM: read-out: plasma t1/2
Method: (§1) Plasma and metabolic stability tests were performed by Eurofins Discovery. For the plasma stability assay, test compounds were incubated in CD-1 mouse plasma for 0, 0.5, 1, 1.5, and 2 h at 37 °C at a concentration of 1 μM. For the metabolic stability assay, test compounds were incubated at 37 °C in either (1) CD-1 mouse liver microsomes (MLM) (0.1 mg/mL) at a concentration of 0.1 μM for 0, 15, 30, 45, and 60 min or (2) CD-1 mouse hepatocytes (MH) (0.7 million viable cells/mL) at a concentration of 1 μM for 0, 0.5, 1, 1.5, and 2 h. At the respective time points, acetonitrile was added to the incubation mixture followed by centrifugation. Samples were analyzed by HPLC-MS/MS and peak areas were recorded for each analyte. Compound stability, expressed as the percentage of parent compound remaining, was calculated by comparing the peak area of the compound at each time point relative to that of the 0h time point. Percentage compound remaining is plotted as a function of time as a logarithmic curve. Half-life (t 1/2) is estimated from the slope of the initial linear range of the curve, assuming first-order kinetics. […] Both plasma and metabolic assay experiments were performed once with 2 replicate samples each.

[3] = Metabolic stability in mouse liver microsomes (MLM); type: in vitro ADME, CD-1 mouse; details: CD-1
Method: as §1

[4] = molecular target: T1, AURKA (Homo sapiens, UniProt O14965); test: AURKA degradation, Simple Western; type: cell-based; parameters: Representative Western blot showing levels of endogenous proteins MDR1, MYCN, AURKA, and CRBN in untreated cell lines; endogenous in cells; host or cells: NGP, IMR-32, SJNB-8, SK-N-BE(2)-C, SK-N-SH, SK-N-AS, SJNB-1, RPE, HEK293T; details: for pDC50: AURKA degradation; for DC50: read-out: AURKA DC50;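 for AURKA Degradation 24h @1000nM: measured in NGP neuroblastoma cells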;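 for AURKA Degradation 24h @100nM: measured in NGP neuroblastoma cells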
T1 sequence (O14965 1-403): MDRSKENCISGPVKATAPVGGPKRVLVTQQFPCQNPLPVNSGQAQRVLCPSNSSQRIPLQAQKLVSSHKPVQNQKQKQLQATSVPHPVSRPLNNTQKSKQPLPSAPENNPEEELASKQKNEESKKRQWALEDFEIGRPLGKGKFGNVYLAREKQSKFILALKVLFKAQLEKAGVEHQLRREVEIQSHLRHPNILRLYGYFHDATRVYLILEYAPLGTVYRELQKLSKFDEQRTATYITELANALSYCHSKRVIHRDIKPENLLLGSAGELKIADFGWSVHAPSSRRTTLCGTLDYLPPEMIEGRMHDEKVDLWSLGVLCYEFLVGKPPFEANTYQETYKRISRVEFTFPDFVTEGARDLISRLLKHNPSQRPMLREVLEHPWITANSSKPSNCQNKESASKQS
Method: Cells were seeded in T-25 flasks at different densities ranging from 1 to 2 million cells per flask and allowed to adhere for 1–2 days. In experiments involving compound treatment, this was done by medium replacement containing the compound(s) of interest in their corresponding concentrations. In competition binding experiments, cells were first pretreated with an excess of MK-5108, thalidomide or MG-132 for 1 h by shaking gently at room temperature prior to addition of SK4454 or SK5527. All samples were normalized to contain the same percentage of DMSO as the negative DMSO controls. Cells were harvested on ice at their respective time points by scraping, washed with ice-cold PBS to collect remaining cells, and centrifuged (2500 rpm, 4 °C). A second washing and centrifugation step was performed prior to collection of the final cell pellets which were then snap-frozen in liquid nitrogen and kept frozen at −80 °C until further processing. Lysis of cell pellets occurred in cold RIPA buffer (0.5% w/v Sodium Deoxycholate, 150 mM NaCl, 50 mM TrisHCl pH 7.5, 0.1% w/v SDS, 1% w/v NP-40) supplemented with protease and phosphatase inhibitors (Roche, #11836145001, #04906845001) by rotating gently at 4 °C for 1h, followed by a centrifugation step for 10 min (10,000 rpm, 4 °C). The supernatant was collected and concentrations of the obtained protein lysates were measured using the Pierce BCA Protein Assay Kit (Thermo Fisher Scientific, #23227).
Simple Western analyses were performed with the Wes instrument (Bio-Techne) using the 12–230 kDa Wes Separation module and the EZ standard pack reagent 1 (Biotechne, #SM-W001, #PS-ST01EZ-8) following the manufacturer’s protocol. Protein lysates were loaded at 0.8 μg/μL under denaturing conditions (0.2 μg/μL for MYCN detection). Chemiluminescence peaks were generated by the Compass Software (Bio-Techne) and the area under the peaks calculated using the Gaussian fit method. Per lane, quantified data were always normalized to that of the loading control (Vinculin) prior to calculating fold changes relative to the negative DMSO control. Mean fold changes are calculated from 3 individual experiments. A list of the primary and secondary antibodies used can be found in the Supporting Information (Supplementary Table S7).
Graphs were generated using GraphPad Prism Software (version 10.1.2) or RStudio (R-4.3.2). All dose–response curves were computed on GraphPad Prism using the Variable Slope (four parameters) equation. Absolute half-maximal degradation (DC50), growth inhibitory (GI50) and enzymatic inhibitory (IC50) concentrations, as well as inhibition constants (Ki) were derived from dose–response curves via interpolation. Statistical tests were performed on GraphPad Prism and detailed in the figure legends. Unless otherwise stated, “n” in the figure legends indicates the number of independent experiments conducted at different times.

[5] = Metabolic stability in mouse hepatocytes (MH); type: in vitro ADME, CD-1 mouse; details: CD-1
Method: as §1

SMILES | GI50 ([1]; read-out: GI50 72h, 72h) | GI50 ([1]; read-out: pGI50 (converted)) | half-life at 1 μM ([2]; CD-1 mouse plasma, 1 μM, 37 °C) | plasma t1/2 ([2]; plasma) | microsomal CLint at 0.1 μM [3] | AURKA Degradation 24h @100nM [4] | AURKA Degradation 24h @1000nM [4] | pDC50 [4] | AURKA degradation activity (in words) ([4]; NGP, 24 h treatment) | Dmax ([4]; NGP, 24 h treatment) | DC50 [4] | half-life at 1 μM ([2]; CD-1, mouse, plasma) | hepatocyte CLint at 1 μM [5]
O=C1CCC(Nc2ccc(N3CCN(C(=O)CNC(=O)[C@]4(Cc5cccc(Nc6nccs6)n5)CC[C@@H](Oc5cccc(Cl)c5F)CC4)CC3)cc2)C(=O)N1 (stereo partly shown) [PROTAC 14] | 46 nM | 45.7 nM | > 2 h | > 2 h | 739 µL/min/mg | 61 | 73 | 7,36 | significantly stronger degradation activity | 76% | 43.8 nM |  | 
O=C1CCN(Cc2ccc(C3CCN(C4CN(C(=O)[C@]5(Cc6cccc(Nc7nccs7)n6)CC[C@@H](Oc6cccc(Cl)c6F)CC5)C4)CC3)nc2)C(=O)N1 [PROTAC 22] | 46 nM | 46.8 nM |  |  | 693 µL/min/mg | 86 | 87 |  |  |  |  | > 2 h | < 4.1 µL/min/1e6 cells
O=C1CCN(c2ccc(N3CCN(CC4CCN(C(=O)[C@]5(Cc6cccc(Nc7nccs7)n6)CC[C@@H](Oc6cccc(Cl)c6F)CC5)C4)CC3)nc2)C(=O)N1 (stereo partly shown) [PROTAC 25] | 33 nM | 32.4 nM |  |  | 426 µL/min/mg | 90 | 87 | 8,47 |  |  | 3.4 nM | > 2 h | 13.6 µL/min/1e6 cells
O=C1CCN(c2ccc(N3CCN(CC4(F)CCN(C(=O)[C@]5(Cc6cccc(Nc7nccs7)n6)CC[C@@H](Oc6cccc(Cl)c6F)CC5)CC4)CC3)nc2)C(=O)N1 [PROTAC 27] | 46 nM | 46.8 nM |  |  | 1060 µL/min/mg | 88 | 93 |  |  |  |  | > 2 h | 
O=C1CCN(c2ccc(C3CCN(C4CN(C(=O)[C@]5(Cc6cccc(Nc7nccs7)n6)CC[C@@H](Oc6cccc(Cl)c6F)CC5)C4)CC3)nc2)C(=O)N1 [PROTAC 28] | 48 nM | 47.9 nM |  |  | 367 µL/min/mg | 80 | 78 | 8,52 |  |  | 3 nM | > 2 h | 13 µL/min/1e6 cells
Cc1cc(Nc2ccc(F)c(CC3(C(=O)N4CCC(F)(CN5CCC(c6ccc(N7CCC(=O)NC7=O)cn6)CC5)CC4)CCN(Cc4cccc(Cl)c4F)CC3)n2)n[nH]1 [PROTAC 37] | 45 nM | 44.7 nM |  |  | 617 µL/min/mg | 84 | 86 |  |  |  |  | > 2 h | 4.5 µL/min/1e6 cells
O=C1CCC(N2C(=O)c3ccc(OCCOCCNC(=O)[C@]4(Cc5cccc(Nc6nccs6)n5)CC[C@@H](Oc5cccc(Cl)c5F)CC4)cc3C2=O)C(=O)N1 (stereo partly shown) [SK3277, reference compound] | 52 nM | 52.5 nM | 1.18 h |  | 1080 µL/min/mg | 81 | 75 | 8,15 |  | 81% | 7 nM |  | 

Reference: PMC12670405, “Second-Generation AURKA-Targeting PROTACs: Structural Optimization toward in Vivo Degradation in Neuroblastoma” (Journal of Medicinal Chemistry, 2025)
